Where two headings read alike, the source gives them in different places. Each block holds one compound with its values, some of them ahead of it.
Columns and labels:
hCA IX = hCA IX (Homo sapiens (Human), UniProt Q16790)
hCA XII = hCA XII (Homo sapiens (Human), UniProt O43570); settings: read-out: KI (nM) Activity hCAXII; Table 1
MDA-231 LM2-4 Luc+ cells = test: 3D Matrigel invasion assay in hypoxia; format: cell-based, human; settings: 4 days in hypoxia
Procedure: A 3D “on-top” matrigel culture assay was performed as described previously (Lee et al, (2007) Nat Methods 4:359-365). […] Cells were allowed to attach for 45 minutes with side-to-side agitation every 10-15 minutes to prevent clumping of cells in the center of the well. An additional 100 μl/well media containing 10% matrigel was added to the cells and cultures were incubated in hypoxia for 4 days. Images were acquired and cultures were fixed for TUNEL using the “whole culture fixation” methodology outlined in Lee et al, (2007) Nat Methods 4:359-365).
Treatment with novel sulfonamide inhibitors of CAIX attenuates hypoxia-induced invasion of human breast cancer cells grown in 3D Matrigel™ cultures (FIG. 16). Cells were cultured in 3D “on-top” Matrigel™ assays for 4 days in hypoxia in the presence of inhibitors. DMSO-treated cell cultures served as controls. The percentage concentration of DMSO and molar concentration of inhibitors are indicated. Representative phase contrast images are shown.

hCA I = hCA I (Homo sapiens (Human), UniProt P00915); settings: read-out: KI (nM) Activity hCAI; Table 1
hCA I, sequence (P00915 whole entry): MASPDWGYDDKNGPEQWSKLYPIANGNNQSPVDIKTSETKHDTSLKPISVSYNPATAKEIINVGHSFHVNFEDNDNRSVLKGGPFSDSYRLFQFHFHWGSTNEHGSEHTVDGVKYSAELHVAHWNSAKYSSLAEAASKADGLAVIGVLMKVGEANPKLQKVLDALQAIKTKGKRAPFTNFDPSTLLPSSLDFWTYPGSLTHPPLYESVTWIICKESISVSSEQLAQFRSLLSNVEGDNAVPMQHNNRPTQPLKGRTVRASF

4T1 mammary tumor cells = test: Experimental metastasis assay, intravenous 4T1 cells, bioluminescence; format: in vivo, mouse; settings: i.v. 4T1 cells, three i.p. doses over 6 days, imaged 24 h after third dose
Procedure: For studies involving genetic depletion of CAIX, 4T1 or 67NR cells (5×10^5) were injected directly into the tail vein of 7-9 week-old female BALB/c mice. Mice were imaged once per week to follow the growth of metastases. Mice were euthanized 20 days post-injection and lungs were resected for further analysis. Tumor burden in the lung was quantified by manually counting nodules visible on the lung surface. For studies using sulphonamide inhibitors, 4T1 cells (1-5×10^5) were injected as described above (Pacchiano et al, (2011) J Med Chem 54:1896-1902).
Animals were treated 24 hours post inoculation of cells. Three doses were administered by i.p. injection over 6 days and the mice were imaged 24 hours following the third dose of inhibitor. […] Quantification of tumor-derived bioluminescence is shown in 12C. Regions of interest were positioned around metastatic foci and total flux (photons/sec) at the mouse surface was calculated. Data are reported as the mean±s.e.m. N=4 per group. *P<0.05.
4T1 cells were injected directly into the tail vein of BALB/c mice. […] Vehicle and inhibitor were administered by i.p. injection. Shown are representative images of tumor-cell derived bioluminescence in control and inhibitor-treated animals.

[1] = read-out: KI (nM) Activity hCAIX, Table 1
[2] = read-out: Ki (nM) hCA IX, Table 2
[3] = read-out: Ki (nM) hCA IX, Table 3

hCA XII, sequence (O43570 25-354): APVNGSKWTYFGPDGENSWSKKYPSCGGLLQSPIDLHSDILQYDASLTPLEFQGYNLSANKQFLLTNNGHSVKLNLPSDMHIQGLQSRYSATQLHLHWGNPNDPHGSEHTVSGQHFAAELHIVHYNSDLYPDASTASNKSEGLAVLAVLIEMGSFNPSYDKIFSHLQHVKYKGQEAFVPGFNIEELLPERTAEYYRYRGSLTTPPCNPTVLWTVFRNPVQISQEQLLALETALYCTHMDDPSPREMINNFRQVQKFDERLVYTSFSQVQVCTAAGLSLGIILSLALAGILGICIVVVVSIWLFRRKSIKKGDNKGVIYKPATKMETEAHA

SMILES: NS(=O)(=O)c1ccc(NC(=O)Nc2ccc(Br)cc2)cc1 [MST-105, 4-({[(4′-Bromophenyl)amino]carbonyl}amino)benzenesulfonamide]
- Ki (hCA IX; [1]): 69.3 nM
- Ki (hCA XII): 7.9 nM

SMILES: NS(=O)(=O)c1ccc(NC(=O)Nc2ccc(I)cc2)cc1 [MST-106, 4-{[(4′-Iodophenyl)carbamoyl]amino}benzenesulfonamide]
- Ki (hCA IX; [1]): 24.5 nM
- Ki (hCA XII): 4.3 nM

- Ki (hCA IX; [1]): 5.4 nM
- Ki (hCA XII): 5.1 nM
SMILES: NS(=O)(=O)c1ccc(NC(=O)Nc2c(F)c(F)c(F)c(F)c2F)cc1 [MST-107, 4-{[(Pentafluorophenyl)carbamoyl]amino}benzenesulfonamide]
- hypoxia-induced invasion (MDA-231 LM2-4 Luc+ cells): inhibit invasion

SMILES: COc1ccccc1NC(=O)Nc1ccc(S(N)(=O)=O)cc1 [MST-108]
- Ki (hCA IX; [1]): 465 nM
- Ki (hCA XII): 61.2 nM
- Ki (hCA I): 92 nM

SMILES: CC(=O)c1ccc(NC(=O)Nc2ccc(S(N)(=O)=O)cc2)cc1 [MST-109, 4-{([(4′-Acetylphenyl)amino]carbonyl)amino}benzenesulfonamide]
- Ki (hCA XII): 4.6 nM

SMILES: CC(C)c1ccccc1NC(=O)Nc1ccc(S(N)(=O)=O)cc1 [MST-110, 4-{([(2′-Isopropylphenyl)amino]carbonyl)amino}benzenesulfonamide]
- Ki (hCA IX; [1]): 0.5 nM
- Ki (hCA XII): 4.2 nM

SMILES: CC(C)c1ccc(NC(=O)Nc2ccc(S(N)(=O)=O)cc2)cc1 [MST-111, 4-{([(4′-Isopropylphenyl)amino]carbonyl)amino}benzenesulfonamide]
- Ki (hCA IX; [1]): 541 nM
- Ki (hCA XII): 49.7 nM

SMILES: CCCCc1ccc(NC(=O)Nc2ccc(S(N)(=O)=O)cc2)cc1 [MST-112, 4-({[(4′-Butylphenyl)amino]carbonyl}amino)benzenesulfonamide]
- Ki (hCA IX; [1]): 376 nM
- Ki (hCA XII): 28.5 nM

SMILES: CCCCOc1ccc(NC(=O)Nc2ccc(S(N)(=O)=O)cc2)cc1 [MST-113, 4-{[(4′-Butoxyphenyl)carbamoyl]amino}benzenesulfonamide]
- Ki (hCA IX; [1]): 0.8 nM
- Ki (hCA XII): 2.5 nM

SMILES: N#Cc1ccc(NC(=O)Nc2ccc(S(N)(=O)=O)cc2)cc1 [MST-115, 4-{[(4′-Cyanophenyl)carbamoyl]amino}benzenesulfonamide]
- Ki (hCA IX; [1]): 6 nM
- Ki (hCA XII): 6.5 nM
- Ki (hCA I): 57 nM

SMILES: N#Cc1ccccc1NC(=O)Nc1ccc(S(N)(=O)=O)cc1 [MST-116, 4-{([(2′-Cyanophenyl)amino]carbonyl)amino}benzenesulfonamide]
- Ki (hCA IX; [1]): 0.3 nM
- Ki (hCA XII): 4.6 nM
- Ki (hCA I): 10.9 nM

SMILES: NS(=O)(=O)c1ccc(NC(=O)Nc2ccc(Oc3ccccc3)cc2)cc1 [MST-117, 4-({[(4′-Phenoxyphenyl)amino]carbonyl}amino)benzenesulfonamide]
- Ki (hCA IX; [1]): 69.1 nM
- Ki (hCA XII): 7.1 nM
- Ki (hCA I): 604 nM

SMILES: NS(=O)(=O)c1ccc(NC(=O)Nc2cccc([N+](=O)[O-])c2)cc1 [MST-119, 4-{[(3′-Nitrophenyl)carbamoyl]amino}benzenesulfonamide]
- formation of metastases (tumor-derived bioluminescence) (4T1 mammary tumor cells): reduces the formation of metastases
- hypoxia-induced invasion (MDA-231 LM2-4 Luc+ cells): inhibit invasion
- Ki (hCA IX; [1]): 0.9 nM

SMILES: COc1ccc(NC(=O)Nc2ccc(S(N)(=O)=O)cc2)c(C)c1 [MST-120, 4-{([(4′-Methoxy-2′-methylphenyl)amino]carbonyl)amino}benzenesulfonamide]
- Ki (hCA XII): 6 nM

SMILES: NS(=O)(=O)c1ccc(NC(=O)NC2CCCC2)cc1 [MST-122, 4-[(Cyclopentylcarbamoyl)amino]benzenesulfonamide]
- Ki (hCA IX; [1]): 7.3 nM
- Ki (hCA XII): 7 nM

SMILES: NS(=O)(=O)c1ccc(NC(=O)Nc2ccc(Cl)cc2)cc1 [MST-124, 4-{([(4′-chlorophenyl)amino]carbonylamino)}benzenesulfonamide]
- Ki (hCA XII): 5.3 nM

SMILES: NS(=O)(=O)c1cccc(NC(=O)Nc2ccc(I)cc2)c1 [MST-128, 3-(3-(4′-Iodophenyl)ureido)benzenesulfonamide]
- Ki (hCA IX; [2]): 13.1 nM

SMILES: NS(=O)(=O)c1cccc(NC(=O)Nc2ccc(F)cc2)c1 [MST-129, 3-(3-(4′-Fluorophenyl)ureido)benzenesulfonamide]
- Ki (hCA IX; [2]): 10.2 nM

SMILES: NS(=O)(=O)c1cccc(NC(=O)Nc2cccc([N+](=O)[O-])c2)c1 [MST-130, 3-(3-(3′-Nitrophenyl)ureido)benzenesulfonamide]
- hypoxia-induced invasion (MDA-231 LM2-4 Luc+ cells): inhibit invasion
- Ki (hCA IX; [2]): 7.9 nM

SMILES: CC(=O)c1ccc(NC(=O)Nc2cccc(S(N)(=O)=O)c2)cc1 [MST-131, 3-(3-(4′-Acetylphenyl)ureido)benzenesulfonamide]
- Ki (hCA IX; [2]): 15.1 nM

SMILES: CC(C)c1ccccc1NC(=O)Nc1cccc(S(N)(=O)=O)c1 [MST-132, 3-(3-(2′-Isopropylphenyl)ureido)benzenesulfonamide]
- Ki (hCA IX; [2]): 18.5 nM

SMILES: NS(=O)(=O)c1ccc(NC(=O)Nc2ccc(Cl)cc2F)cc1 [MST-134, 4-(3-(4′-chloro-2-fluorophenyl)ureido)benzenesulfonamide]
- Ki (hCA IX; [3]): 5.1 nM

SMILES: NS(=O)(=O)c1ccc(NC(=O)Nc2cc(F)c(F)cc2F)cc1 [MST-137, 4-(3-(2′,4′,5′-trifluorophenyl)ureido)benzenesulfonamide]
- Ki (hCA IX; [3]): 7.6 nM

SMILES: NS(=O)(=O)c1ccc(NC(=O)Nc2cc(C(F)(F)F)ccc2F)cc1 [MST-138, 4-(3-(2′-fluoro-5′-(trifluoromethyl)phenyl)ureido)benzenesulfonamide]
- Ki (hCA IX; [3]): 7.4 nM

SMILES: NS(=O)(=O)c1ccc(NC(=O)Nc2ccc(F)c(F)c2F)cc1 [MST-140, 4-(3-(2′,3′,4′-trifluorophenyl)ureido)benzenesulfonamide]
- Ki (hCA IX; [3]): 9.6 nM

SMILES: NS(=O)(=O)c1ccc(NC(=O)Nc2ccccc2F)cc1 [MST-141, 4-(3-(2′-fluorophenyl)ureido)benzenesulfonamide]
- Ki (hCA IX; [3]): 7.7 nM

SMILES: NS(=O)(=O)c1ccc(NC(=O)Nc2ccc(F)cc2F)cc1 [MST-142, 4-(3-(2′,4′-difluorophenyl)ureido)benzenesulfonamide]
- Ki (hCA IX; [3]): 3.7 nM

SMILES: NS(=O)(=O)c1ccc(NC(=O)Nc2cc(Cl)ccc2Cl)cc1 [MST-144, 4-(3-(2′,5′-dichlorophenyl)ureido)benzenesulfonamide]
- Ki (hCA IX; [3]): 8.9 nM

SMILES: NS(=O)(=O)c1ccc(NC(=O)Nc2cc([N+](=O)[O-])ccc2Cl)cc1 [MST-145, 4-(3-(2′-Chloro-5-nitrophenyl)ureido)benzenesulfonamide]
- Ki (hCA IX; [3]): 8.2 nM
